# Experimental data taken from US20030198690A1, “Device and method for treating restenosis” (Medical Research Fund of Tel Aviv Sourasky Medical Center, priority 2002, published 2003).
# Key:
# Wistar rats = experiment: Balloon dilation carotid injury in rats, morphometric and immunohistochemical analysis of arteries; assay type: in vivo
# Experimental: (§1) Carotid injury was induced in Wistar rats by balloon dilation according to a conventional model (Clowes A W, Reidy M A, Clowes M M. Kinetic of cellular proliferation after arterial injury. Lab Invest 1983; 49:327-334). Rats were then injected daily i.p. with either zinc (at a concentration of 5 mg/kg) or saline (control) for 2 weeks until sacrifice. Arteries were taken for morphometeric and immunohistochemical analysis.
# [1] = Levels of serum zinc in treated rats; assay type: in vivo, Wistar rats; conditions: zinc 5 mg/kg i.p. daily for 2 weeks; p<0.01 vs control rats
# Experimental: as §1
# Levels of serum zinc were elevated in the zinc-treated rats (248.2±19.4 pg/ml) as compared to the control rats (136.8±7.2 pg/ml; p<0.01).
smiles,measurement,setting,value
[Zn] [zinc],inflammatory cell infiltrate (NF-κB and iNOS positive cells),"Wistar rats; immunohistochemical staining of arteries, zinc 5 mg/kg i.p. daily for 2 weeks",a reduction was evident
same,external elastic lamina size,Wistar rats; zinc 5 mg/kg i.p. daily for 2 weeks after carotid balloon injury,without influencing
same,neointimal area,"Wistar rats; zinc 5 mg/kg i.p. daily for 2 weeks after carotid balloon injury, FIG. 1",reduced
same,neointimal/medial ratio,"Wistar rats; zinc 5 mg/kg i.p. daily for 2 weeks after carotid balloon injury, FIG. 2",reduced
same,Levels of serum zinc,[1],0.2482 ± 0.0194 ng/mL
